Reference: patent publication US8383817B2, “Benztropine compounds and uses thereof” (The United States of America, as represented by the …, priority 2005, dated 2013)
Read-outs that look alike come from different tables or passages of the source.

Key:
DAT [1] = target: T1, DAT (Rattus norvegicus, UniProt P23977); test: biochemical; type: binding
T1 construct: their brains removed to an ice-cooled dish for dissection of the caudate putamen; from tissue; host or cells: rat caudate putamen homogenate

NET [2] = type: binding, rat
muscarinic M1 receptor [3] = target: T2, muscarinic M1 receptor (Rattus norvegicus, UniProt P08482); test: [3H]Pirenzepine Binding Assay, rat brain membranes
T2 construct: Membranes from frozen rat brains excluding cerebellum were thawed; from tissue; host or cells: rat brain (excluding cerebellum) membranes
T2 sequence (P08482 1-460): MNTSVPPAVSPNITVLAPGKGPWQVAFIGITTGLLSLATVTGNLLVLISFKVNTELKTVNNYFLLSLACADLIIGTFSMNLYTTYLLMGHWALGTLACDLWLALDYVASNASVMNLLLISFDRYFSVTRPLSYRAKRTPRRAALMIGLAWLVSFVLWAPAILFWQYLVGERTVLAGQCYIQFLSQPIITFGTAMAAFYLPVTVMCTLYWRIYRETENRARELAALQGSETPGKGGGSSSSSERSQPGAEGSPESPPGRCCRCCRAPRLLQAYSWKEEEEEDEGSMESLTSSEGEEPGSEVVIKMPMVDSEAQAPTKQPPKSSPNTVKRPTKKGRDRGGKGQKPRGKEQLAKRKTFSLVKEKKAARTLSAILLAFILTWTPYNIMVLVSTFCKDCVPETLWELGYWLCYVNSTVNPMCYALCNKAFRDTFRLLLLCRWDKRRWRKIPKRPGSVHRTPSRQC

SERT [4] = target: T3, SERT (Rattus norvegicus, UniProt P31652); test: [3H]Citalopram Binding Assay, rat midbrain membranes; details: for Ki: rat brain membranes, read-out: SERT [3H]citalopram Ki ± SEM
T3 construct: Membranes from frozen rat midbrain were homogenized; from tissue; host or cells: rat midbrain membranes

muscarinic M1 receptor [5] = target: T2, muscarinic M1 receptor; details: comparative data taken from Agoston et al. 1997; read-out: M1 [3H]pirenzepine Ki ± SEM; cited from earlier work
NET [6] = target: T4, NET (Rattus norvegicus, UniProt Q63380); details: read-out: NET [3H]nisoxetine Ki ± SEM; comparative data taken from Agoston et al. 1997; cited from earlier work
SERT [7] = target: T3, SERT; details: comparative data taken from Agoston et al. 1997; read-out: SERT [3H]citalopram Ki ± SEM; cited from earlier work
DAT [8] = target: T1, DAT; details: read-out: DAT [3H]WIN 35,428 Ki ± SEM; comparative data taken from Agoston et al. 1997; cited from earlier work
[9] = Model For Reducing Effect of Nicotine (nicotine discrimination); type: in vivo, rat; details: rats; dose 3.0 mg/kg; nicotine only control 50%
Source text: Model For Reducing Effect of Nicotine. Food-deprived rats were trained to press one lever for a food pellet after nicotine administration and a second lever after vehicle administration. Pellets of food were delivered intermittently, so that every twentieth response produced food. Using this procedure, the only cue for the rat regarding which lever occasionally pays off with a food pellet, is the subjective effect of the nicotine. When the rats were accurately and reliably identifying the nicotine injections (approximately all of its responses on the lever that occasionally pays off after nicotine or saline), testing began. The rats were pretreated with a compound of Formula III before nicotine injection, and the experiment progressed as described above, except responses on either lever intermittently produced food. A 50% effective nicotine dose was reduced to low levels of effectiveness upon administration of a compound of Formula III.

NET [10] = target: T4, NET; type: binding; details: read-out: NET [3H]nisoxetine Ki ± SEM; rat brain membranes; incubation time 1 h
[11] = target: T5, dopaminergic transporter sites (Mus musculus, UniProt Q61327); test: In vivo binding of [125I]RTI-121 (displacement in striatum); details: mice
T5 construct: Whole brains were rapidly removed and striatum and cerebellum were dissected on ice; from tissue; host or cells: mouse striatum, in vivo occupancy
Source text: In vivo binding of [^125I]RTI-121. Each animal received an i.v. injection of 2 μCi of [^125I]RTI-121. Two hours after administration of [^125I]RTI-121, the animals were sacrificed by cervical dislocation. In each mouse, displacement of [^125I]RTI-121 was examined by giving an i.p. injection of one of the displacers at various doses and times relative to sacrifice, Displacement by test drugs at various doses was examined at various times after their injection, with each data point determined in sets of approximately six mice. Whole brains were rapidly removed and striatum and cerebellum were dissected on ice.
Regional radioactivity levels were divided by weight (gram) of the tissue (CPM/tissue weight). Specific binding was calculated as CPM/tissue weight in striatum divided by cerebellum minus 1 (S/C−1), which is based on the observation that dopaminergic transporter sites are highly concentrated in the striatum and relatively absent in the cerebellum. These values were expressed as a percentage of specific binding after vehicle injection. Data were analyzed using two-way analysis of variance (ANOVA), and a post-hoc Tukey's test was used to determine significance of effects for individual doses at different time periods following IP injection of compound 1a (FIG. 3A), 1b (FIG. 3B), MFZ 2-74 (R^1=Me; R^2,3=F; R^4=CO2-^iPr) (FIG. 3C), 15 (FIG. 3D), and 14 (FIG. 3E). […]

[12] = ratio of respective Ki values, greater than 1 = DAT selective
[13] = rat brain membranes, read-out: M1 [3H]pirenzepine Ki ± SEM
[14] = read-out: DAT [3H]WIN 35,428 Ki ± SEM

T3 sequence (P31652 whole entry): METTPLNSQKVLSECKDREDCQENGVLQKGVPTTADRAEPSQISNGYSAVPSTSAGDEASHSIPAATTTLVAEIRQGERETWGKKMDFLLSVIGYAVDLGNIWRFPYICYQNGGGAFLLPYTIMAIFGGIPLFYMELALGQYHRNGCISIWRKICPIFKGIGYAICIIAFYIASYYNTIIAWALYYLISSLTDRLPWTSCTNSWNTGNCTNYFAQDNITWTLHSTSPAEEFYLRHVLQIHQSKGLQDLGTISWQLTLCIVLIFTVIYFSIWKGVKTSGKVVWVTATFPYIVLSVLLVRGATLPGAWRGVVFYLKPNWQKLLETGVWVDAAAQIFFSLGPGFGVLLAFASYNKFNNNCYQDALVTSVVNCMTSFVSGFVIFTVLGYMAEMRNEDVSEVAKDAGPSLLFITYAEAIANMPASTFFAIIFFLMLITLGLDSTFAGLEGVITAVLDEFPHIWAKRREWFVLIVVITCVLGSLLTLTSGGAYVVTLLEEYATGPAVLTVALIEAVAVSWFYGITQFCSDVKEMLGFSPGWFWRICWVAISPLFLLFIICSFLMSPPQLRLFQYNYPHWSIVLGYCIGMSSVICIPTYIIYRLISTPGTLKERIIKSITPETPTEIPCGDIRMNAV
T1 sequence (P23977 whole entry): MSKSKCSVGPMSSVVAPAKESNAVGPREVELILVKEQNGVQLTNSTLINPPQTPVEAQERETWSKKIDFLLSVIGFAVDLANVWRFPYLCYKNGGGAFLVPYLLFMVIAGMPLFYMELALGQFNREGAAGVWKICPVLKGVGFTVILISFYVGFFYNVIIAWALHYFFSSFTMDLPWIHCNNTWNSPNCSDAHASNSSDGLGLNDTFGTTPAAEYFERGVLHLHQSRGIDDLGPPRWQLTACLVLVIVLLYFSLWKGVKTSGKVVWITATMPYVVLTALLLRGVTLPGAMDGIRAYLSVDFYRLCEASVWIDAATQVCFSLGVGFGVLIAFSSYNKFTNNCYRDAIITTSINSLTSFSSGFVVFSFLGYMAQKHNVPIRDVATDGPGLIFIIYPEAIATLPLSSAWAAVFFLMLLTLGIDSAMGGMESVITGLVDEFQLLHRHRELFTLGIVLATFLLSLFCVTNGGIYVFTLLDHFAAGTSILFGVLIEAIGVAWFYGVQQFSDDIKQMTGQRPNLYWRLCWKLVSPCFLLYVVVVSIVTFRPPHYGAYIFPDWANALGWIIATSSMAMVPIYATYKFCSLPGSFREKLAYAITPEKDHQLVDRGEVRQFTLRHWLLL
T4 sequence (Q63380 1-617): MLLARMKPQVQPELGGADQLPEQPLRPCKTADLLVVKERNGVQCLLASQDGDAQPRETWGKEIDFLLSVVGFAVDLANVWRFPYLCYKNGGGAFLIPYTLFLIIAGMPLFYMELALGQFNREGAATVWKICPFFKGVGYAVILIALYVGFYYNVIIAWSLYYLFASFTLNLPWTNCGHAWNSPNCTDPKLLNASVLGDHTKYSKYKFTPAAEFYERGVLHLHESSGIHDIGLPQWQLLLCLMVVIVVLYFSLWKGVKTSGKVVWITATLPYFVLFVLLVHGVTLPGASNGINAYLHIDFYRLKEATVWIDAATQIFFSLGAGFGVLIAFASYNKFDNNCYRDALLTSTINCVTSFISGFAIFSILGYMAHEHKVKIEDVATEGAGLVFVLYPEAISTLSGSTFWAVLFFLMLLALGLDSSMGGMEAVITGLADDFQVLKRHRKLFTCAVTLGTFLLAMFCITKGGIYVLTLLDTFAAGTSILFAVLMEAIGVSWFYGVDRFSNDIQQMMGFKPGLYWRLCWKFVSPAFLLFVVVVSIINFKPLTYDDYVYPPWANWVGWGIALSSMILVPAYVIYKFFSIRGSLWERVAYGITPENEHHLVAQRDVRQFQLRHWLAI
T5 sequence (Q61327 whole entry): as the sequence (P23977 whole entry) above, with S21P, A57V, A194S, H600R, L619V counted along it

| SMILES | Binding selectivity DAT/NET (NET [2]; [12]) | Ki (muscarinic M1 receptor [3]; [13]) [nM] | Binding selectivity DAT/M1 (muscarinic M1 receptor [3]; [12]) | Ki (SERT [4]) [nM] | Binding selectivity DAT/SERT (SERT [4]; [12]) | Ki (DAT [1]; [14]) [nM] | other results |
| --- | --- | --- | --- | --- | --- | --- | --- |
| CCOC(=O)C1C(OC(c2ccc(Cl)cc2)c2ccc(Cl)cc2)CC2CCC1N2C (racemic) [(±)-15] | – | – | – | – | – | – | Ki (DAT [1]; read-out: DAT binding Ki): 22 ± 0.84 nM |
| CN1C2CCC1[C@@H](CO)[C@@H](OC(c1ccc(F)cc1)c1ccc(F)cc1)C2 (stereo partly drawn) [Compound 2, S-(+)-2β-hydroxymethyl-3α-[bis(4-fluorophenyl)methoxy]tropane] | 279 | 109 ± 15.1 | 31 | 910 ± 65 | 258 | – | Ki (DAT [1]): 3.52 ± 0.42 nM |
| C=CCN1[C@@H]2CC[C@H]1C[C@@H](OC(c1ccc(F)cc1)c1ccc(F)cc1)C2 [Compound 13] | 178 | – | 20 | – | 324 | – | Ki (muscarinic M1 receptor [5]): 177 ± 21.1 nM; Ki (NET [6]): 1570 ± 242 nM; Ki (SERT [7]): 2850 ± 62.5 nM; Ki (DAT [8]): 8.79 ± 0.52 nM; Effect (of a 50% effective nicotine dose after pretreatment) [9]: 22.4% |
| CCOC(=O)[C@@H]1C2CCC(C[C@@H]1OC(c1ccc(F)cc1)c1ccc(F)cc1)N2 (stereo partly drawn) [Compound 9, S-(+)-N-nor-2β-Carboethoxy-3α-[bis(4-fluorophenyl)methoxy]tropane] | 63 | 17100 ± 2480 | – | 2150 ± 222 | 242 | 8.87 ± 1.02 | – |
| C=C[C@@H]1C2CCC(C[C@@H]1OC(c1ccc(F)cc1)c1ccc(F)cc1)N2C (stereo partly drawn) [Compound 4, S-(+)-2β-Ethenyl-3α-[bis(4-fluorophenyl)methoxy]tropane] | 261 | 163 ± 23.1 | 90 | 1790 ± 114 | 989 | 1.81 | – |
| COC(=O)[C@@H]1C2CCC(C[C@@H]1OC(c1ccc(F)cc1)c1ccc(F)cc1)N2C (some centres unmarked) [Compound 1a] | 91 | 133 ± 4.16 | 45 | 689 ± 58.4 | 234 | 2.94 | Ki (NET [10]): 269 nM |
| CN1[C@@H]2CC[C@H]1[C@H](COC(=O)CCCc1ccc([N+](=O)[O-])cc1)[C@@H](OC(c1ccc(F)cc1)c1ccc(F)cc1)C2 [Compound 7, S-(+)-2β-{[4-(4′-Nitrophenyl)butyryl]oxymethyl}-3α-[bis(4-fluorophenyl)methoxy]tropane] | – | – | – | 3780 ± 390 | – | – | Ki (muscarinic M1 receptor [3]): 708 ± 102 nM |
| COC(=O)/C=C/[C@@H]1C2CCC(C[C@@H]1OC(c1ccc(F)cc1)c1ccc(F)cc1)N2C (stereo partly drawn) [Compound 5, S-(+)-2β-(2′-(methoxycarbonyl)eth-1′-enyl)-3α-[bis(4-fluorophenyl)methoxy]tropane] | 54 | 1380 ± 81 | 278 | 572 ± 51 | 115 | 4.69 ± 0.6 | Ki (DAT [1]): 4.96 nM |
| CC(C)OC(=O)C1C(OC(c2ccc(F)cc2)c2ccc(F)cc2)CC2CCC1N2C (centres unmarked) [MFZ 2-74] | – | – | – | – | – | – | Time of maximal displacement of [125I]RTI-121 after injection ([11]; IP injection of displacer, striatum vs cerebellum, FIG. 3): not obtained; Time at which maximal displacement of [125I]RTI-121 would likely be obtained ([11]; IP injection, FIG. 3C, maximal displacement not obtained in the test): > 3 h |
| CCOC(=O)[C@@H]1C2CCC(C[C@@H]1OC(c1ccc(F)cc1)c1ccc(F)cc1)N2C (some centres unmarked) [Compound 1b] | 91 | 1890 ± 132 | 275 | 1850 ± 270 | 269 | 6.87 ± 0.33 | Ki (NET [10]): 629 ± 31 nM |
| COC(=O)CC[C@@H]1C2CCC(C[C@@H]1OC(c1ccc(F)cc1)c1ccc(F)cc1)N2C (stereo partly drawn) [Compound 6, S-(+)-2β-(2′-(Methoxycarbonyl)ethyl)-3α-[bis(4-fluorophenyl)methoxy]tropane] | 121 | 3110 ± 435 | 831 | 1070 ± 118 | 286 | 3.74 | – |
| COC(=O)C1C(OC(c2ccc(Cl)cc2)c2ccc(Cl)cc2)CC2CCC1N2C (racemic) [(±)-14] | – | – | – | – | – | – | Ki (DAT [1]; read-out: DAT binding Ki): 23.4 ± 1.5 nM |
| CCCCN1C2CCC1[C@@H](C(=O)OCC)[C@@H](OC(c1ccc(F)cc1)c1ccc(F)cc1)C2 (stereo partly drawn) [Compound 10, S-(+)-N-Butyl-2β-carboethoxy-3α-[bis(4-fluorophenyl)methoxy]tropane] | 71 | 3200 ± 298 | 391 | 2500 ± 327 | 305 | 8.18 ± 0.17 | – |
| C=CCN1C2CCC1[C@@H](C(=O)OCC)[C@@H](OC(c1ccc(F)cc1)c1ccc(F)cc1)C2 (stereo partly drawn) [Compound 11, S-(+)-N-Allyl-2β-carboethoxy-3α-[bis(4-fluorophenyl)methoxy]tropane] | 85 | 11400 ± 1650 | 1036 | 2280 ± 125 | 207 | 11 ± 0.94 | – |
| CN1C2CCC1[C@@H](COC(=O)CCCc1ccc(N)cc1)[C@@H](OC(c1ccc(F)cc1)c1ccc(F)cc1)C2 (stereo partly drawn) [Compound 8, S-(−)-2β-{[4-(4′-Aminophenyl)butyryl]oxymethyl}-3α-[bis(4-fluorophenyl)methoxy]tropane] | – | 342 ± 33.7 | reduced DAT/M1 selectivity | 1390 ± 145 | – | 27.6 ± 0.85 | Binding selectivity DAT/NET (NET [2]): 16; Binding selectivity DAT/M1 (muscarinic M1 receptor [3]): 12; Binding selectivity DAT/SERT (SERT [4]): 50 |
